Reference: patent US9789165B2 (Sanofi, priority 2013, dated 2017)
Converted amounts (≈) assume the structure as drawn. Read-outs that look alike come from different tables or passages of the source. Square brackets hold non-standard residues; d marks the D form. Peptide text beside a SMILES is read from it. Nle = CCCC[C@H](N)C(=O)O; Aib = CC(C)(N)C(=O)O

Assays:
[1] = tested on: female diabetic dbdb-mice; assay: Glucose lowering in non-fasted female diabetic dbdb-mice; assay type: in vivo; conditions: 100 μg/kg s.c., baseline on average 29 mmol/l
Protocol: Female diabetic dbdb-mice (BKS.Cg−+Leprdb/+Leprdb/OlaHsd) 10 weeks of age at study start were used. Mice were habituated to feeding and housing conditions for at least 2 weeks. 7 days prior to study start, HbA1c were determined to allocate mice to groups, aiming to spread low, medium and high HbA1c-values and in consequence the group-means (n=8), as equally as possible. On the day of study, food was removed, directly before sampling for baseline glucose assessment (t=0 min). Immediately afterwards, compounds or vehicle (phosphor buffered saline, PBS) were administered subcutaneously, 100 μg/kg, 10 ml/kg. Afterwards, blood samples were drawn by tail tip incision at 15, 30, 60, 90, 120, 150, 180, 240, 360, 480 min and 24 h. Food was re-offered after the 480 min-sampling.
Data were analysed by 2-W-ANOVA on repeated measurements, followed by Dunnett's test as post-hoc assessment, level of significance p<0.05.
Female dbdb-mice, received 100 μg/kg of SEQ ID NO: 8, SEQ ID NO: 9 or phosphate buffered saline (vehicle control) subcutaneously, at time 0 min.

[2] = biological target: T1, human glucagon receptor (hGLUC R) (Homo sapiens, UniProt P47871); assay: cAMP response of HEK-293 cells stably expressing human glucagon receptor (HTRF); assay type: cell-based; conditions: Table 6; cAMP formation
T1 construct: expressed in transfected cells
Protocol: cAMP content of cells was determined using a kit from Cisbio Corp. (cat. no. 62AM4PEC) based on HTRF (Homogenous Time Resolved Fluorescence). For preparation, cells were split into T175 culture flasks and grown overnight to near confluency in medium (DMEM/10% FBS). Medium was then removed and cells washed with PBS lacking calcium and magnesium, followed by proteinase treatment with accutase (Sigma-Aldrich cat. no. A6964). Detached cells were washed and resuspended in assay buffer (1×HBSS; 20 mM HEPES, 0.1% BSA, 2 mM IBMX) and cellular density determined. They were then diluted to 400000 cells/ml and 25 μl-aliquots dispensed into the wells of 96-well plates. For measurement, 25 μl of test compound in assay buffer was added to the wells, followed by incubation for 30 minutes at room temperature.

[3] = assay type: physicochemical; conditions: buffer, 168 h
Protocol: After that time course, the sample was centrifuged for 20 min at 4000 rpm and the supernatant was analysed with HPLC-UV.
For determination of the amount of the remaining peptide, the peak areas of the target compound at t0 and t7 were compared, resulting in “% remaining peptide”, following the equation % remaining peptide=[(peak area peptide t7)×100]/peak area peptide t0.
The chemical stability is expressed as “% remaining peptide”.
(§1) As HPLC/UPLC method, method D or E has been used.

[4] = Solubility testing in buffer systems, HPLC-UV of supernatant; assay type: physicochemical; conditions: buffer system
Protocol: Prior to the testing of solubility and stability of a peptide batch, its content was determined. Therefore, two parameters were investigated, its purity (HPLC-UV) and the amount of salt load of the batch (ion chromatography).
Therefore, solutions from solid samples were prepared in different buffer systems with a concentration of 1.0 mg/mL compound based on the previously determined content. HPLC-UV was performed after 2 h of gentle agitation from the supernatant, which was obtained by 20 min of centrifugation at 4000 rpm.
This analysis also served as starting point (t0) for the stability testing.
as §1

[5] = Pharmacokinetic testing in mice, plasma LC/MS; assay type: in vivo; conditions: mouse, sc, 1 mg/kg s.c.
Protocol: Mice were dosed 1 mg/kg subcutaneously (s.c.). The mice were sacrified and blood samples were collected after 0.25, 0.5, 1, 2, 4, 8, 16 and 24 hours post application. Plasma samples were analyzed after protein precipitation via liquid chromatography mass spectrometry (LC/MS). PK parameters and half-life were calculated using WinonLin Version 5.2.1 (non-compartment model).
Pharmacokinetic profiles were determined as described in Methods.

[6] = pH 4.5, target concentration 1.0 mg/mL, read-out: Solubility (pH 4.5)
[7] = pH 7.4, target concentration 1.0 mg/mL, read-out: Solubility (pH 7.4)

T1 sequence (P47871 26-477): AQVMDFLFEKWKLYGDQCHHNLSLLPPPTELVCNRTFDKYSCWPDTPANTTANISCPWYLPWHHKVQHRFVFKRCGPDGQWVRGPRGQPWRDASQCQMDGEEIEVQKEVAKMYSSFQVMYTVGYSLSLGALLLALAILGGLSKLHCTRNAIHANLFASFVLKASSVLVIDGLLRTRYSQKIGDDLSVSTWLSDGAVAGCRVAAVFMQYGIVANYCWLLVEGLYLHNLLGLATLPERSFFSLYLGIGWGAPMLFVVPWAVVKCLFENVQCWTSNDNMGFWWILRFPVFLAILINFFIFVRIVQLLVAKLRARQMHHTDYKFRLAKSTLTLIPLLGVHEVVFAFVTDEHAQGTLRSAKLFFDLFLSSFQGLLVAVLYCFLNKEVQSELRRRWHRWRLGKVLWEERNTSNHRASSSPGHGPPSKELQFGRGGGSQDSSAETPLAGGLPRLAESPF

SMILES	maximal effect, glucose reduction [1] [mmol/L]	EC50 [2] [nM]	Stability (pH 4.5), % remaining peptide [3] [%]	Stability (pH 7.4), % remaining peptide [3] [%]	solubility at 2 h [4, 6] [µg/mL]	solubility at 2 h [4, 7] [µg/mL]	Cmax [5] [ng/mL]	half-life [5] [min]
CC[C@H](C)[C@H](NC(=O)[C@H](CO)NC(=O)[C@H](CC(C)C)NC(=O)[C@H](CC(=O)O)NC(=O)[C@H](CO)NC(=O)[C@@H](NC(=O)[C@H](Cc1ccccc1)NC(=O)[C@@H](NC(=O)CNC(=O)[C@H](CCC(=O)O)NC(=O)C(C)(C)NC(=O)[C@@H](N)Cc1ccc(O)cc1)[C@@H](C)O)[C@@H](C)O)C(=O)N[C@@H](CCC(N)=O)C(=O)N[C@@H](CCSC)C(=O)N[C@@H](CCC(=O)O)C(=O)N[C@@H](CCCCN)C(=O)N[C@@H](CCCNC(=N)N)C(=O)N[C@@H](C)C(=O)N[C@@H](C)C(=O)NC(C)(C)C(=O)N[C@@H](CCC(=O)O)C(=O)N[C@@H](Cc1ccccc1)C(=O)N[C@H](C(=O)N[C@@H](CCC(=O)O)C(=O)N[C@@H](Cc1c[nH]c2ccccc12)C(=O)N[C@@H](CC(C)C)C(=O)N[C@@H](CCCCN)C(=O)N[C@@H](C)C(=O)NCC(=O)NCC(=O)N1CCC[C@H]1C(=O)N[C@@H](CO)C(=O)N[C@@H](CO)C(=O)NCC(=O)N[C@@H](C)C(=O)N1CCC[C@H]1C(=O)N1CCC[C@H]1C(=O)N1CCC[C@H]1C(=O)N[C@@H](CO)C(N)=O)[C@@H](C)CC [SEQ ID NO: 8, Y-Aib-E-G-T-F-T-S-D-L-S-I-Q-M-E-K-R-A-A-Aib-E-F-I-E-W-L-K-A-G-G-P-S-S-G-A-P-P-P-S-NH2] (H-Y[Aib]EGTFTSDLSIQMEKRAA[Aib]EFIEWLKAGGPSSGAPPPS-NH2)	~12	> 1000	99	92	> 1000	> 1000	734	18
CCCC[C@H](NC(=O)[C@H](CCC(N)=O)NC(=O)[C@@H](NC(=O)[C@H](CO)NC(=O)[C@H](CC(C)C)NC(=O)[C@H](CC(=O)O)NC(=O)[C@H](CO)NC(=O)[C@@H](NC(=O)[C@H](Cc1ccccc1)NC(=O)[C@@H](NC(=O)CNC(=O)[C@H](CCC(=O)O)NC(=O)C(C)(C)NC(=O)[C@@H](N)Cc1ccc(O)cc1)[C@@H](C)O)[C@@H](C)O)[C@@H](C)CC)C(=O)N[C@@H](CCC(=O)O)C(=O)N[C@@H](CCCCN)C(=O)N[C@@H](CCCNC(=N)N)C(=O)N[C@@H](C)C(=O)N[C@@H](C)C(=O)NC(C)(C)C(=O)N[C@@H](CCC(=O)O)C(=O)N[C@@H](Cc1ccccc1)C(=O)N[C@H](C(=O)N[C@@H](CCC(=O)O)C(=O)N[C@@H](Cc1c[nH]c2ccccc12)C(=O)N[C@@H](CC(C)C)C(=O)N[C@@H](CCCCN)C(=O)N[C@@H](C)C(=O)NCC(=O)NCC(=O)N1CCC[C@H]1C(=O)N[C@@H](CO)C(=O)N[C@@H](CO)C(=O)NCC(=O)N[C@@H](C)C(=O)N1CCC[C@H]1C(=O)N1CCC[C@H]1C(=O)N1CCC[C@H]1C(=O)N[C@@H](CO)C(N)=O)[C@@H](C)CC [SEQ ID NO: 10, Y-Aib-E-G-T-F-T-S-D-L-S-I-Q-Nle-E-K-R-A-A-Aib-E-F-I-E-W-L-K-A-G-G-P-S-S-G-A-P-P-P-S-NH2] (H-Y[Aib]EGTFTSDLSIQ[Nle]EKRAA[Aib]EFIEWLKAGGPSSGAPPPS-NH2)	–	–	100	100	960 (≈ 234 µM)	> 1000	–	–
CC[C@H](C)[C@H](NC(=O)[C@H](CO)NC(=O)[C@H](CC(C)C)NC(=O)[C@H](CC(=O)O)NC(=O)[C@H](CO)NC(=O)[C@@H](NC(=O)[C@H](Cc1ccccc1)NC(=O)[C@@H](NC(=O)CNC(=O)[C@H](CCC(=O)O)NC(=O)C(C)(C)NC(=O)[C@@H](N)Cc1ccc(O)cc1)[C@@H](C)O)[C@@H](C)O)C(=O)N[C@@H](CCC(N)=O)C(=O)N[C@@H](CC(C)C)C(=O)N[C@@H](CCC(=O)O)C(=O)N[C@@H](CCCCN)C(=O)N[C@@H](CCCNC(=N)N)C(=O)N[C@@H](C)C(=O)N[C@@H](C)C(=O)NC(C)(C)C(=O)N[C@@H](CCC(=O)O)C(=O)N[C@@H](Cc1ccccc1)C(=O)N[C@H](C(=O)N[C@@H](CCC(=O)O)C(=O)N[C@@H](Cc1c[nH]c2ccccc12)C(=O)N[C@@H](CC(C)C)C(=O)N[C@@H](CCCCN)C(=O)N[C@@H](C)C(=O)NCC(=O)NCC(=O)N1CCC[C@H]1C(=O)N[C@@H](CO)C(=O)N[C@@H](CO)C(=O)NCC(=O)N[C@@H](C)C(=O)N1CCC[C@H]1C(=O)N1CCC[C@H]1C(=O)N1CCC[C@H]1C(=O)N[C@@H](CO)C(N)=O)[C@@H](C)CC [SEQ ID NO: 9, Y-Aib-E-G-T-F-T-S-D-L-S-I-Q-L-E-K-R-A-A-Aib-EFIEWLKAGGPSSGAPPPSN H2] (H-Y[Aib]EGTFTSDLSIQLEKRAA[Aib]EFIEWLKAGGPSSGAPPPS-NH2)	~16	–	100	100	875 (≈ 213 µM)	892 (≈ 217 µM)	–	–
